The values below are quoted from earlier work in article PMC3131558, “Plitidepsin Has a Safe Cardiac Profile: A Comprehensive Analysis” (Marine Drugs, 2011).

The conditions of the data set: possible class effect of HDACI inhibitors; cited from earlier work. From the text:
Plitidepsin has neither shown cardiac toxicity during preclinical/toxicology studies nor has been reported in early phase I clinical trials.

Consider `Cc1[nH]c2ccccc2c1CCNCc1ccc(/C=C/C(=O)NO)cc1` [LBH589], for which the “Electrocardiogram (ECG) abnormalities” value is “reported”. As for `O=C(/C=C/c1ccc(CN(CCO)CCc2c[nH]c3ccccc23)cc1)NO` [LAQ824], the “Electrocardiogram (ECG) abnormalities” value is “reported”.
